Assay results as given in US5369030A, “Method of inducing cellular differentiations and altering cell phenotype using ceramide analogs” (Duke University, priority 1992, dated 1994).
Read-outs that look alike come from different tables or passages of the source.

Tested on: HL-60 cells
Experiment: HL-60 cell growth/proliferation, cells counted with a hemocytometer
Format: cell-based, human
Conditions: for cell density / inhibition of cell growth (in words): Example 3C; for cell density: starting density 2×10^5 cells/ml; for inhibition of cell growth (in words): time course to 108 hours
Experimental: Human myelocytic leukemia HL-60 cells (20-45 passages (American Type Culture Collection, Rockville, Md., accession no. CCL 240) were obtained and grown in RPMI 1640 medium (Sigma Chemical Co., St. Louis, Mo.) containing 10% fetal calf serum at 37° C. in 5% CO2 incubator at a cell density of 2×10^5 cells/mi. The cells were washed once with phosphate buffered saline (PBS) and resuspended in serum-free media containing insulin (5 mg/liter) and transferrin (5 mg/liter) for 2-3 hours before treatment with various compounds.
HL-60 cells were treated with 3 μM of Cn-L-t-APPD with acyl chain lengths of C6, C8, C10, C12, C14, C16, and C18 (m=4, 6, 8, 10, 12, 14 and 16) in fresh ehtanol solution or with an ethanol vehicle and cell growth was determined following three days of treatment. Cell growth was quantified using a hemocytometer. Cell viability was judged by the ability to exclude trypan blue dye. Viability was always more than 80% unless otherwise described.
HL-60 cells (starting cell density of 2×10^5 cells/ml) were treated with different concentrations of C14-L-t-APPD and cells were counted following 24 and 72 hours of treatment. The results are representative of three experiments. A 1μM dose of C14-L-t-APPD had little or no effect on cell growth at 24 or 72 hours (approximately 105% and 130% of control, respectively). A 2μM dose inhibited cell growth to approximately 65% of the control at both 24 and 72 hours. […] The IC50% was approximately 2 μM (10 fmol/cell). IC50% is the concentration of test compound that causes 50% inhibition of cell growth in comparison with controls. Thus, similar to results with C2-ceramide, C14-APPD inhibited cell proliferation at different durations of treatment.
HL-60 cells (starting cell density of 2×10^5 cells/ml) were treated with 3 μM Cn-L-t-APPD derivatives with N-acyl chain lengths of C6, C8, C10, C12, C14, C16, and C18 (m=4,6,8,10, 12, 14, and 16) and cells were counted at 0, 12, 36, 60, 84 and 108 hours post treatment. The results are representative of 3 experiments.
N-acyl derivatives of 2-amino-1-(4'-nitrophenyl)-1,3-propanediol (Cn-D-t-ANPPD) were tested to determine the effects of chain length on HL-60 cell growth as described in Examples 3 A. HL-60 cells (at a starting cell density of 2×10^5 cells/ml) were treated with 3 μM of the diff analogs (C6, C8, C10, C12, C14, C16 and C18) of Cn-D-t-ANPPD, and cell growth was determined at three days. The control received no Cn-D-t-ANPPD. Treatment of HL-60 cells with C2-ceramide is included for comparison.
HL-60 cells were treated with the indicated concentrations and cell growth was determined following three days of treatment as described in Example 3B.
The suitability of phenylaminopropanediol derivatives as analogs of ceramide allowed further investigation of the structural requirements for ceramide-mediated biology. For these experiments, C14 (N-myristoyl) derivatives of different phenylaminoalcohols were synthesized and examined for their biologic activity. HL-60 cells (starting cell density of 2×10^5 cells/ml) were treated with 3 μM of C14 derivatives C14-L-t-APPD, C14-D-t-ANPPD, C14-D-e-APP-1, C14-L-e-APP-1, C14-APP-3 and C14-D-APP3. The structures of these compounds are provided in Table I. Cell growth was determined at 3 days as described in Example 3A. The results shown are averages of two determinations, and are representative of five different experiments.
and C14-L-e-APP-1 HL-60 cells were treated as described in Example 3B. growth was determined after 3 days of treatment.

[1] = Example 3A, 3 μM Cn-L-t-APPD, three days
[2] = Example 5, 3 μM C14 derivatives, 3 days
[3] = Homo sapiens, HL-60, 72 h, Example 4A, Table II, 3 μM Cn-D-t-ANPPD (C2-ceramide concentration not given), three days, read-out: CELL GROWTH (% OF CONTROL)

With CCCCCCCCCCCCCCCC(=O)N[C@@H](CO)[C@@H](O)c1ccccc1 [C16-L-t-APPD] the “cell growth, % of control” value [1] was about 65%, the cell density (3 μM, 60 hours) was 400000 mL⁻¹ and the cell density (3 μM, 84 hours) was 700000 mL⁻¹. For the same molecule, the cell density (3 μM, 108 hours) was 1.2e+06 mL⁻¹ and the “inhibition of cell growth (in words)” value (3 μM) was “able to inhibit cell growth by significant amounts”.

With CCCCCCCC(=O)N[C@@H](CO)[C@@H](O)c1ccccc1 [C8-L-t-APPD] the “cell growth, % of control” value [1] was 104%, the cell density (3 μM, 60 hours) was 800000 mL⁻¹ and the cell density (3 μM, 84 hours) was 1.4e+06 mL⁻¹. For the same molecule, the cell density (3 μM, 108 hours) was 2.4e+06 mL⁻¹.

CCCCCCCCCCCCCCCCCC(=O)N[C@@H](CO)[C@@H](O)c1ccccc1 [C18-L-t-APPD] was tested, and the “cell growth, % of control” value [1] was 116%, the cell density (3 μM, 60 hours) was 800000 mL⁻¹ and the cell density (3 μM, 84 hours) was 1.4e+06 mL⁻¹. For the same molecule, the cell density (3 μM, 108 hours) was 2.3e+06 mL⁻¹.

In the case of CCCCCCCCCCCCCC(=O)N[C@H](C)[C@H](O)c1ccccc1 [C14-D-t-APP-1], the “cell growth, % of control” value [2] is reported as 49%.

CCCCCCCC(=O)N[C@H](CO)[C@H](O)c1ccc([N+](=O)[O-])cc1 [C8-D-t-ANPPD] gave an activity at 3 µM [3] of 70%.

With CCCCCCCCCCCCCC(=O)N[C@@H](CO)Cc1ccccc1 [C14-DAPP-3] the “cell growth, % of control” value [2] was 14%.

For CCCCCC(=O)N[C@H](CO)[C@H](O)c1ccc([N+](=O)[O-])cc1 [C6-D-t-ANPPD], the activity at 3 µM [3] was 70%.

CCCCCCCCCCCC(=O)N[C@H](CO)[C@H](O)c1ccc([N+](=O)[O-])cc1 [C12-D-t-ANPPD] was tested, and the “CELL GROWTH (% OF CONTROL)” value (Example 4A, Table II, 3 μM Cn-D-t-ANPPD (C2-ceramide concentration not given), three days, listed as C12 chain analog) was “about 4 % OF CONTROL” and the activity at 3 µM [3] was 4%.

In the case of CCCCCCCCCCCC(=O)N[C@@H](CO)[C@@H](O)c1ccccc1 [C12-L-t-APPD], the “cell growth, % of control” value [1] is reported as “approximately 40%”, the cell density (3 μM, 60 hours) is reported as 300000 mL⁻¹ and the cell density (3 μM, 84 hours) is reported as 300000 mL⁻¹. The cell density (3 μM, 108 hours) was 600000 mL⁻¹ and the “inhibition of cell growth (in words)” value (3 μM) was “able to inhibit cell growth by significant amounts”.

With CCCCCCCCCCCCCC(=O)N[C@H](CO)Cc1ccccc1 [C14-LAPP-3] the “cell growth, % of control” value [2] was 15%.

Molecule CCCCCCCCCC(=O)N[C@H](CO)[C@H](O)c1ccc([N+](=O)[O-])cc1 [C10-D-t-ANPPD] has an activity at 3 µM [3] of 68%.

For CCCCCCCCCCCCCCCC(=O)N[C@H](CO)[C@H](O)c1ccc([N+](=O)[O-])cc1 [C16-D-t-ANPPD], the “CELL GROWTH (% OF CONTROL)” value (Example 4A, Table II, 3 μM Cn-D-t-ANPPD (C2-ceramide concentration not given), three days) was about 5 % OF CONTROL and the activity at 3 µM [3] was 5%.

For CCCCCCCCCCCCCC(=O)N[C@H](CO)[C@H](O)c1ccc([N+](=O)[O-])cc1 [C14-D-t-ANPPD], the “CELL GROWTH (% OF CONTROL)” value (Example 4A, Table II, 3 μM Cn-D-t-ANPPD (C2-ceramide concentration not given), three days, listed as C14 chain analog) was “about 1 % OF CONTROL”, the activity at 3 µM [3] was 1% and the activity at 0.1 µM (Homo sapiens, HL-60, 72 h, Example 4B, Table III, 0.1 μM, three days, read-out: CELL GROWTH (% OF CONTROL)) was 110%. It also gave an activity at 0.2 µM (Homo sapiens, HL-60, 72 h, Example 4B, Table III, 0.2 μM, three days, read-out: CELL GROWTH (% OF CONTROL)) of 112%, an activity at 0.3 µM (Homo sapiens, HL-60, 72 h, Example 4B, Table III, 0.3 μM, three days, read-out: CELL GROWTH (% OF CONTROL)) of 113% and an activity at 0.5 µM (Homo sapiens, HL-60, 72 h, Example 4B, Table III, 0.5 μM, three days, read-out: CELL GROWTH (% OF CONTROL)) of 105%. For the same molecule, the activity at 1 µM (Homo sapiens, HL-60, 72 h, Example 4B, Table III, 1 μM, three days, read-out: CELL GROWTH (% OF CONTROL)) was 85%, the activity at 2 µM (Homo sapiens, HL-60, 72 h, Example 4B, Table III, 2 μM, three days, read-out: CELL GROWTH (% OF CONTROL)) was 12% and the activity at 3 µM (Homo sapiens, HL-60, 72 h, Example 4B, Table III, 3 μM, three days, read-out: CELL GROWTH (% OF CONTROL)) was 3%. For the same molecule, the activity at 4 µM (Homo sapiens, HL-60, 72 h, Example 4B, Table III, 4 μM, three days, read-out: CELL GROWTH (% OF CONTROL)) was 2% and the IC50 (Homo sapiens, HL-60, 72 h, Example 4B, three days, read-out: concentration for 50% inhibition of cell growth) was about 1500 nM.

In the case of CCCCCCCCCC(=O)N[C@@H](CO)[C@@H](O)c1ccccc1 [C10-L-t-APPD], the “cell growth, % of control” value [1] is reported as 90%, the cell density (3 μM, 60 hours) is reported as 800000 mL⁻¹ and the cell density (3 μM, 84 hours) is reported as 1.2e+06 mL⁻¹. For the same molecule, the cell density (3 μM, 108 hours) was 2e+06 mL⁻¹ and the inhibition at 3 µM (Homo sapiens, HL-60, 72 h, Example 3A, 3 μM, three days, read-out: reduction of cell growth as compared to a control) was about 10%.

Molecule CCCCCCCCCCCCCCCCCC(=O)N[C@H](CO)[C@H](O)c1ccc([N+](=O)[O-])cc1 [C18-D-t-ANPPD] has an activity at 3 µM [3] of 82%.

For CCCCCCCCCCCCCC(=O)N[C@@H](C)[C@H](O)c1ccccc1 (relative stereo) [C14-DL-e-APP-1], the “cell growth, % of control” value [2] was 60%.

For CCCCCC(=O)N[C@@H](CO)[C@@H](O)c1ccccc1 [C6-L-t-APPD], the “cell growth, % of control” value [1] was 105%, the cell density (3 μM, 60 hours) was 800000 mL⁻¹ and the cell density (3 μM, 84 hours) was 1.4e+06 mL⁻¹. For the same molecule, the cell density (3 μM, 108 hours) was 2.4e+06 mL⁻¹.
